Test results reported in patent publication US11737977B2, “Cerasome delivery system for targeting activated CD44 molecule, preparation method and use thereof” (Beijing Inno Medicine Co., Ltd., priority 2017, dated 2023).

Legend:
[1] = tested on: arterial vulnerable plaques; assay: In vivo CT tracing of arterial vulnerable plaques, iodixanol; design: species or system mice; conditions: iodixanol 0.66 mg/kg, tail vein, CT 72 hours after administration; FIG. 16
Method: (1) A commercially available iodixanol bulk drug was used, and the cerasome delivery system HA-CL1@I loaded with a CT tracer, the cerasome delivery system HA-CL1@I+S loaded with a tracer and a CD44 activator, and the non-targeting cerasome delivery system CL1@I loaded with a tracer (as a comparative example) were prepared by the method described in the above Example 2.
(2) A mouse model of atherosclerotic vulnerable plaque was constructed according to the method described in Example 6 above.
(3) The model mice were fed with a high-fat diet (same as in Example 6) for 16 weeks. 30 model mice were randomly divided into the blank group (6 mice), the iodixanol group (6 mice, given the commercially available iodixanol bulk drug, and the dosage of iodixanol was 0.66 mg/kg body weight), the CL1@I group (6 mice, given CL1@I, and the dosage of iodixanol was 0.66 mg/kg body weight), the HA-CL1@I group (6 mice, given HA-CL1@I, and the dosage of iodixanol was 0.66 mg/kg body weight), and HA-CL1@I+S group (6 mice, given HA-CL1@I+S, the dosage of iodixanol was 0.66 mg/kg body weight, and the dosage of CD44 activator-LPS was about 0.023 mg/kg body weight). […]

[2] = oral, clinical practice; cited from earlier work
[3] = tested on: arterial vulnerable plaques; assay: In vivo therapeutic effect on arterial vulnerable plaques (carotid MRI, percentage of plaque progression); design: species or system ApoE−/− mice; conditions: 5 mg rosuvastatin per kg, once every other day, 5 treatments; FIG. 14
[4] = biological target: T1, CD44 on the surface of macrophages inside arterial vulnerable plaques (Mus musculus, UniProt P15379); assay: Binding force integration of FL-ligand/antibody on macrophages (flow cytometry MFI); design: species or system mice; conditions: aminofluorescein-labeled ligand/antibody 10 mg/ml, 30 minutes, 37° C.
T1 construct: from tissue; host or cells: macrophages from inside arterial vulnerable plaques of atherosclerosis model mice
T1 sequence (P15379 23-778): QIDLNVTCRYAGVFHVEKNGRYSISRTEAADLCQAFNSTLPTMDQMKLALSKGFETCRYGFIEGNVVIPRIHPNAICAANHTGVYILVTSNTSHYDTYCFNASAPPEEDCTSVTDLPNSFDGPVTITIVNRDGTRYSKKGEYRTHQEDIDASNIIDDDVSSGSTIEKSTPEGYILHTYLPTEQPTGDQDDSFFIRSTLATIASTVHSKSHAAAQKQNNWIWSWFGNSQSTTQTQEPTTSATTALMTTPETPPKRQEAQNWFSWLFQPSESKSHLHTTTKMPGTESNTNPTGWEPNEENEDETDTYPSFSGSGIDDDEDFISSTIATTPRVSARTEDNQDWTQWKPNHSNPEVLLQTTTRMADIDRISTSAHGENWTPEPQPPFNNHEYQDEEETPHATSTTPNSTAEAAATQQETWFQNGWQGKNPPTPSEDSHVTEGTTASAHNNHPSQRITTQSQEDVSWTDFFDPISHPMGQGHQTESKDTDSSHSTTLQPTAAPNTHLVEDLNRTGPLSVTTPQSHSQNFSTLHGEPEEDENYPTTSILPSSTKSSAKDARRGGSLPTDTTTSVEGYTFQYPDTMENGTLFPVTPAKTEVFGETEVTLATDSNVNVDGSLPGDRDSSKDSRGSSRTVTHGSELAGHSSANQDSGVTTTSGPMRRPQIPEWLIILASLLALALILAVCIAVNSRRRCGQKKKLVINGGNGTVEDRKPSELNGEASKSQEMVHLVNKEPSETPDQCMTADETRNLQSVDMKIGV
Method: Intraperitoneal macrophages and macrophages inside arterial vulnerable plaques of model mice were taken, and hyaluronic acid labeled with aminofluorescein at a concentration of 10 mg/ml (represented by “FL-HA”) was added, the sample was cultured in DMEM (containing calf serum with a volume fraction of 10%, 100 U/ml penicillin, 100 U/ml streptomycin) at 37° C., in 5% CO2 incubator.
Intraperitoneal macrophages and macrophages inside arterial vulnerable plaques of model mice were taken, and the ligand/antibody labeled with aminofluorescein at a concentration of 10 mg/ml was added, the sample was cultured in DMEM (containing calf serum with a volume fraction of 10%, 100 U/ml penicillin, 100 U/ml streptomycin) at 37° C., in 5% CO2 incubator.

[5] = biological target: T2, CD44 on the surface of endothelial cells at arterial vulnerable plaques (Mus musculus, UniProt P15379); assay: Binding force integration of FL-ligand/antibody on endothelial cells (flow cytometry MFI); design: species or system mice; conditions: aminofluorescein-labeled ligand/antibody 10 mg/ml, 30 minutes, 37° C.
T2 construct: from tissue; host or cells: endothelial cells from arterial vulnerable plaques of atherosclerosis model mice
T2 sequence (P15379 23-778): T1 sequence (P15379 23-778)
Method: Endothelial cells at normal arterial vessel walls and endothelial cells at arterial vulnerable plaques of model mice were taken, and hyaluronic acid labeled with aminofluorescein at a concentration of 10 mg/ml (represented by “FL-HA”) was added, and the sample was cultured in Dulberic modified Eagle's medium (DMEM) (containing calf serum with a volume fraction of 10%, 100 U/ml penicillin, 100 U/ml streptomycin) at 37° C., in 5% CO2 incubator. After 30 minutes, the mean fluorescence intensity (MFI) was determined by flow cytometry (CytoFLEX, Beckman Coulter, U.S.A.), and the binding force integration of FL-HA on the surface of both cells was calculated (the binding force of endothelial cells of normal arterial vessel walls is set to 1).
Endothelial cells at normal arterial vessel walls and endothelial cells at arterial vulnerable plaques of model mice were taken, and the ligand/antibody labeled with aminofluorescein at a concentration of 10 mg/ml was added, the sample was cultured in Dulberic modified Eagle's medium (DMEM) (containing calf serum with a volume fraction of 10%, 100 U/ml penicillin, 100 U/ml streptomycin) at 37° C., in 5% CO2 incubator. After 30 minutes, the mean fluorescence intensity (MFI) was determined by flow cytometry (CytoFLEX, Beckman Coulter, U.S.A.), and the binding force integration of FL-ligand/antibody on the surface of both cells was calculated (the binding force of CD44 of endothelial cells of normal arterial vessel walls to ligand/antibody is set to 1).

Row | Molecule | tracing effect on arterial vulnerable plaques (CT) [1] | bioavailability when administered orally [2] | therapeutic effect on arterial vulnerable plaques (percentage of plaque progression) [3] | binding force integration, macrophages inside vulnerable plaques versus macrophages outside the plaque (set to 1) [4] | binding force integration, endothelial cells at vulnerable plaques versus endothelial cells of normal arterial vessel walls (set to 1) [5]
1 | CC(=O)N(CC(O)CN(C(C)=O)c1c(I)c(C(=O)NCC(O)CO)c(I)c(C(=O)NCC(O)CO)c1I)c1c(I)c(C(=O)NCC(O)CO)c(I)c(C(=O)NCC(O)CO)c1I (stereo not shown) [iodixanol] | does not show any tracing effect |  |  |  | 
2 | CC(C)c1nc(N(C)S(C)(=O)=O)nc(-c2ccc(F)cc2)c1/C=C/[C@@H](O)C[C@@H](O)CC(=O)O [rosuvastatin] |  | about 20% | shows a certain therapeutic effect, but it could not prevent the continued growth of vulnerable plaques |  | 
3 | collagen |  |  |  | 38 times | 21 times
4 | fibronectin |  |  |  | 35 times | 18 times
5 | hyaluronic acid [HA, reference compound] |  |  |  | approximately 40 times | approximately 24 times
6 | laminin |  |  |  | 37 times | 16 times
7 | osteopontin: natural ligand for CD44 |  |  |  | 33 times | 17 times
